Patent US20130053381A1, “2,4-DIOXO-1,4-DIHYDRO-2H-QUINAZOLIN-3-YL-SULFONAMIDE DERIVATIVES” (NOVARTIS AG, priority 2010, published 2013)

These molecules were tested on OF1 mice (assay: Maximal electroshock test (MES Test)). Conditions: Mus musculus, po; 50 mg/kg, p.o., pre-treatment time −1 h; read-out: %-Protection.
Assay type: in vivo
Method: Compounds of the invention were tested in OF1 mice using the maximal electroshock test (MES Test) described in detail by Schmutz et al., Naunyn-Schmiedeberg's Arch Pharmacol 1990, 342, 61-66. Briefly, generalized tonic-clonic convulsions of the hind extremities were induced by passing electrical current through temporal electrodes (50 Hz, 18 mA, 0.2s). […] 30 mg/kg carbamazepine was used as a positive control; mice were classified as protected by a compound If the duration of the seizure lasted only 3 second or less. Five mice were used for each treatment condition and the percentage of protected mice was used as readout (i.e. a compound could give 0%, 20%, 40%, 60%, 80% or 100% protection). Usually, compounds of the invention or their parents were given at a dose of 50 mg/kg, p.o., 1 hour prior to induction of convulsions (i.e. “pre-treatment time −1 h”).
ED50 values (ED: effective dose) were calculated using GraphPad Prism, v4.02. after shock administration, mouse blood was collected for determination of compounds' blood exposure.
Work on `CC(=O)n1c(=O)n(N(C(=O)OCc2ccccc2)S(C)(=O)=O)c(=O)c2cc(-c3ccnn3C)c(C(C)C)cc21` [Example 3.27, [1-Acetyl-7-isopropyl-6-(2-methyl-2H-pyrazol-3-yl)-2,4-dioxo-1,4-dihydro-2H-quinazolin-3-yl]-methanesulfonyl-carbamic acid benzyl ester] yielded a responders at 50 mg/kg of 100%. With `COCCOCCOCC(=O)N(n1c(=O)[nH]c2cc(C(C)C)c(-c3ccnn3C)cc2c1=O)S(C)(=O)=O` [Example 3.28, N-[7-Isopropyl-6-(2-methyl-2H-pyrazol-3-yl)-2,4-dioxo-1,4-dihydro-2H-quinazolin-3-yl]-N-[2-[2-(2-methoxy-ethoxy)-ethoxy]-acetyl]-methanesulfonamide] the responders at 50 mg/kg was 100%. For `CC(C)c1cc2[nH]c(=O)n(N(C(=O)COCc3ccccc3)S(C)(=O)=O)c(=O)c2cc1-c1ccnn1C` [Example 3.29, N-(2-Benzyloxy-acetyl)-N-[7-isopropyl-6-(2-methyl-2H-pyrazol-3-yl)-2,4-dioxo-1,4-dihydro-2H-quinazolin-3-yl]-methanesulfonamide], the responders at 50 mg/kg was 100%. `CC(C)c1cc2[nH]c(=O)n(N(C(=O)CCCOCc3ccccc3)S(C)(=O)=O)c(=O)c2cc1-c1ccnn1C` [Example 3.30, N-(4-Benzyloxy-butyryl)-N-[7-isopropyl-6-(2-methyl-2H-pyrazol-3-yl)-2,4-dioxo-1,4-dihydro-2H-quinazolin-3-yl]-methanesulfonamide] showed a responders at 50 mg/kg of 100%. `CC(C)c1cc2[nH]c(=O)n(N(C(=O)CN3CCOCC3)S(C)(=O)=O)c(=O)c2cc1-c1ccnn1C` [Example 3.31, N-[7-Isopropyl-6-(2-methyl-2H-pyrazol-3-yl)-2,4-dioxo-1,4-dihydro-2H-quinazolin-3-yl]-N-(2-morpholin-4-yl-acetyl)-methanesulfonamide] showed a responders at 50 mg/kg of 100%. For `COC(=O)N(n1c(=O)c2cc(-c3ccnn3C)c(C(C)C)cc2n(C(=O)OC)c1=O)S(C)(=O)=O` [Example 3.32, 7-Isopropyl-3-(methoxycarbonyl-methanesulfonyl-amino)-6-(2-methyl-2H-pyrazol-3-yl)-2,4-dioxo-3,4-dihydro-2H-quinazoline-1-carboxylic acid methyl ester], the responders at 50 mg/kg was 80%. With `CCOC(=O)N(n1c(=O)c2cc(-c3ccnn3C)c(C(C)C)cc2n(C(=O)OCC)c1=O)S(C)(=O)=O` [Example 3.33] the responders at 50 mg/kg was 80%. Work on `CCCOC(=O)N(n1c(=O)c2cc(-c3ccnn3C)c(C(C)C)cc2n(C(=O)OCCC)c1=O)S(C)(=O)=O` [Example 3.34, 7-Isopropyl-3-(methanesulfonyl-propoxycarbonyl-amino)-6-(2-methyl-2H-pyrazol-3-yl)-2,4-dioxo-3,4-dihydro-2H-quinazoline-1-carboxylic acid propyl ester] yielded a responders at 50 mg/kg of 80%. For `CCCCOC(=O)N(n1c(=O)c2cc(-c3ccnn3C)c(C(C)C)cc2n(C(=O)OCCCC)c1=O)S(C)(=O)=O` [Example 3.35, 3-(Butoxycarbonyl-methanesulfonyl-amino)-7-isopropyl-6-(2-methyl-2H-pyrazol-3-yl)-2,4-dioxo-3,4-dihydro-2H-quinazoline-1-carboxylic acid butyl ester], the responders at 50 mg/kg was 80%. `COC(=O)n1c(=O)n(N(C(C)=O)S(C)(=O)=O)c(=O)c2cc(-c3ccnn3C)c(C(C)C)cc21` [Example 3.36, 3-(Acetyl-methanesulfonyl-amino)-7-isopropyl-6-(2-methyl-2H-pyrazol-3-yl)-2,4-dioxo-3,4-dihydro-2H-quinazoline-1-carboxylic acid methyl ester] showed a responders at 50 mg/kg of 100%. `CC(C)c1cc2[nH]c(=O)n(N(C(=O)CCCN3CCOCC3)S(C)(=O)=O)c(=O)c2cc1-c1ccnn1C` [Example 3.37, N-[7-Isopropyl-6-(2-methyl-2H-pyrazol-3-yl)-2,4-dioxo-1,4-dihydro-2H-quinazolin-3-yl]-N-(4-morpholin-4-yl-butyryl)-methanesulfonamide] gave a responders at 50 mg/kg of 100%. Work on `CC(C)c1cc2[nH]c(=O)n(N(C(=O)CCN3CCOCC3)S(C)(=O)=O)c(=O)c2cc1-c1ccnn1C` [Example 3.38, N-[7-Isopropyl-6-(2-methyl-2H-pyrazol-3-yl)-2,4-dioxo-1,4-dihydro-2H-quinazolin-3-yl]-N-(3-morpholin-4-yl-propionyl)-methanesulfonamide] yielded a responders at 50 mg/kg of 80%. For `CCOC(=O)CCC(=O)N(n1c(=O)[nH]c2cc(C(F)(F)F)c(-n3ccnc3)cc2c1=O)S(C)(=O)=O` [Example 4.01, 4-[(6-Imidazol-1-yl-2,4-dioxo-7-trifluoromethyl-1,4-dihydro-2H-quinazolin-3-yl)-methanesulfonyl-amino]-4-oxo-butyric acid ethyl ester], the responders at 50 mg/kg was 20%. Molecule `CCCCC(=O)N(n1c(=O)[nH]c2cc(C(F)(F)F)c(-n3ccnc3)cc2c1=O)S(C)(=O)=O` [Example 4.02, N-(6-Imidazol-1-yl-2,4-dioxo-7-trifluoromethyl-1,4-dihydro-2H-quinazolin-3-yl)-N-pentanoyl-methanesulfonamide] has a responders at 50 mg/kg of 100%. `CC(=O)N(n1c(=O)[nH]c2cc(C(F)(F)F)c(-n3ccnc3)cc2c1=O)S(C)(=O)=O` [Example 4.03, N-Acetyl-N-(6-imidazol-1-yl-2,4-dioxo-7-trifluoromethyl-1,4-dihydro-2H-quinazolin-3-yl)-methanesulfonamide] showed a responders at 50 mg/kg of 40%. `CC(C)C(=O)N(n1c(=O)[nH]c2cc(C(F)(F)F)c(-n3ccnc3)cc2c1=O)S(C)(=O)=O` [Example 4.05, N-(6-Imidazol-1-yl-2,4-dioxo-7-trifluoromethyl-1,4-dihydro-2H-quinazolin-3-yl)-N-isobutyryl-methanesulfonamide] was tested, and the responders at 50 mg/kg was 80%. With `CC(C)CC(=O)N(n1c(=O)[nH]c2cc(C(F)(F)F)c(-n3ccnc3)cc2c1=O)S(C)(=O)=O` [Example 4.06, N-(6-Imidazol-1-yl-2,4-dioxo-7-trifluoromethyl-1,4-dihydro-2H-quinazolin-3-yl)-N-(3-methyl-butyryl)-methanesulfonamide] the responders at 50 mg/kg was 20%. Work on `CS(=O)(=O)N(C(=O)C1CCCC1)n1c(=O)[nH]c2cc(C(F)(F)F)c(-n3ccnc3)cc2c1=O` [Example 4.07] yielded a responders at 50 mg/kg of 40%. `CCCCCC(=O)N(n1c(=O)[nH]c2cc(C(F)(F)F)c(-n3ccnc3)cc2c1=O)S(C)(=O)=O` [Example 4.08, N-Hexanoyl-N-(6-imidazol-1-yl-2,4-dioxo-7-trifluoromethyl-1,4-dihydro-2H-quinazolin-3-yl)-methanesulfonamide] gave a responders at 50 mg/kg of 20%. `CCCC(=O)N(n1c(=O)[nH]c2cc(C(F)(F)F)c(-n3ccnc3)cc2c1=O)S(C)(=O)=O` [Example 4.09, N-Butyryl-N-(6-imidazol-1-yl-2,4-dioxo-7-trifluoromethyl-1,4-dihydro-2H-quinazolin-3-yl)-methanesulfonamide] gave a responders at 50 mg/kg of 40%. Work on `CC(=O)N(n1c(=O)[nH]c2cc(C(F)(F)F)c(-c3ccnn3C(C)C)cc2c1=O)S(C)(=O)=O` [Example 5.01, N-Acetyl-N-[6-(2-isopropyl-2H-pyrazol-3-yl)-2,4-dioxo-7-trifluoromethyl-1,4-dihydro-2H-quinazolin-3-yl]-methanesulfonamide] yielded a responders at 50 mg/kg of 60%. Molecule `CCC(=O)N(n1c(=O)[nH]c2cc(C(F)(F)F)c(-c3ccnn3C(C)C)cc2c1=O)S(C)(=O)=O` [Example 5.02, N-[6-(2-Isopropyl-2H-pyrazol-3-yl)-2,4-dioxo-7-trifluoromethyl-1,4-dihydro-2H-quinazolin-3-yl]-N-propionyl-methanesulfonamide] has a responders at 50 mg/kg of 20%. `CCCC(=O)N(n1c(=O)[nH]c2cc(C(F)(F)F)c(-c3ccnn3C(C)C)cc2c1=O)S(C)(=O)=O` [Example 5.03, N-Butyryl-N-[6-(2-isopropyl-2H-pyrazol-3-yl)-2,4-dioxo-7-trifluoromethyl-1,4-dihydro-2H-quinazolin-3-yl]-methanesulfonamide] showed a responders at 50 mg/kg of 40%. In the case of `CCCCCC(=O)N(n1c(=O)[nH]c2cc(C(F)(F)F)c(-c3ccnn3C(C)C)cc2c1=O)S(C)(=O)=O` [Example 5.04, N-Hexanoyl-N-[6-(2-isopropyl-2H-pyrazol-3-yl)-2,4-dioxo-7-trifluoromethyl-1,4-dihydro-2H-quinazolin-3-yl]-methanesulfonamide], the responders at 50 mg/kg was 20%. Molecule `CC(C)C(=O)N(n1c(=O)[nH]c2cc(C(F)(F)F)c(-c3ccnn3C(C)C)cc2c1=O)S(C)(=O)=O` [Example 5.05, N-Isobutyryl-N-[6-(2-isopropyl-2H-pyrazol-3-yl)-2,4-dioxo-7-trifluoromethyl-1,4-dihydro-2H-quinazolin-3-yl]-methanesulfonamide] has a responders at 50 mg/kg of 60%. Molecule `CCOC(=O)N(n1c(=O)[nH]c2cc(C(F)(F)F)c(-c3ccnn3C(C)C)cc2c1=O)S(C)(=O)=O` [Example 5.06, [6-(2-Isopropyl-2H-pyrazol-3-yl)-2,4-dioxo-7-trifluoromethyl-1,4-dihydro-2H-quinazolin-3-yl]-methanesulfonyl-carbamic acid ethyl ester] has a responders at 50 mg/kg of 60%.

Same assay, conditions: Mus musculus, po; 50 mg/kg, p.o., pre-treatment time −2 h (footnote a); read-out: %-Protection
Molecule `CCC(=O)N(n1c(=O)[nH]c2cc(C(F)(F)F)c(-n3ccnc3)cc2c1=O)S(C)(=O)=O` [Example 4.04, N-(6-Imidazol-1-yl-2,4-dioxo-7-trifluoromethyl-1,4-dihydro-2H-quinazolin-3-yl)-N-propionyl-methanesulfonamide] has a responders at 50 mg/kg of 40%.

Same assay, conditions: single 50 mg/kg p.o. dose; 30 min after treatment, MES Test
`CCCCC(=O)N(n1c(=O)[nH]c2cc(C(F)(F)F)c(-n3ccnc3)cc2c1=O)S(C)(=O)=O` [Example 4.02, N-(6-Imidazol-1-yl-2,4-dioxo-7-trifluoromethyl-1,4-dihydro-2H-quinazolin-3-yl)-N-pentanoyl-methanesulfonamide] was tested, and the “%-seizure protection” value was 100%.
